Assay results as given in the Kinase Knowledgebase extract (Sharma et al. 2016).

target: EGFR (human) (UniProt P00533); conditions: a431
Sequence (P00533 whole entry, looked up): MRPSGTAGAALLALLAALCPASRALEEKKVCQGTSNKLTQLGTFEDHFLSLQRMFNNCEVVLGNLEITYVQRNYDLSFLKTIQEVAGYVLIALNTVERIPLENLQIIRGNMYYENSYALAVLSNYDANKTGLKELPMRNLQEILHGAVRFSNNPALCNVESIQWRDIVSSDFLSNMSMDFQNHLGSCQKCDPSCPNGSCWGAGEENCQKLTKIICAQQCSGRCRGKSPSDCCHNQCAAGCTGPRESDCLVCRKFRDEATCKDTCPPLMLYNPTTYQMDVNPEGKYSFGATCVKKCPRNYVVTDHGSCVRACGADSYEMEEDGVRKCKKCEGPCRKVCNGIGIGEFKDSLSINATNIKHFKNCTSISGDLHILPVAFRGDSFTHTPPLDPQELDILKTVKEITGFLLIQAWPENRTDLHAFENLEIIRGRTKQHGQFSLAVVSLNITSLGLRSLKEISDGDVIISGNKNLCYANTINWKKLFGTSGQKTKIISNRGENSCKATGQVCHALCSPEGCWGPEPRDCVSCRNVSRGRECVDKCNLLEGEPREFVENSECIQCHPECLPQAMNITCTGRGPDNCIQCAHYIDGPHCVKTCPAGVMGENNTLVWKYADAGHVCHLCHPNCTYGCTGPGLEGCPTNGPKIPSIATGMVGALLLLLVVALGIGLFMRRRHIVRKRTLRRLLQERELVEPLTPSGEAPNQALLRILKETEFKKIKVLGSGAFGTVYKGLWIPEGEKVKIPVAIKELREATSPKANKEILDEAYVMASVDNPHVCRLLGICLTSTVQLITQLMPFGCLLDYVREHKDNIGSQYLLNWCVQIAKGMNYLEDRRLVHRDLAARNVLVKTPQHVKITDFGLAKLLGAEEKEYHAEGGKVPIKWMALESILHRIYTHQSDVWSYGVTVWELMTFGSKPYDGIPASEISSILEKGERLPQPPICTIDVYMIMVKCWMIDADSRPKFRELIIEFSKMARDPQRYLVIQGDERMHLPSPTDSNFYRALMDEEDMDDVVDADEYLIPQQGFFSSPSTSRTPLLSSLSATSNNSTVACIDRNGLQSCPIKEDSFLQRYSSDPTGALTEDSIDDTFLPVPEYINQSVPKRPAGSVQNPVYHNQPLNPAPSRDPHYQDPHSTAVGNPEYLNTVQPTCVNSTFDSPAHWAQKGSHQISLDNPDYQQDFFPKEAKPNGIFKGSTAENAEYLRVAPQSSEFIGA

`Cc1nc2cc3ncc(-c4ccccc4)nc3cc2n1C` and `Cc1nc2cc3nc(-c4ccccc4)cnc3cc2n1C` cannot be ordered by IC50: over 30 µM for the first, over 30 µM for the second.

`c1ccc(-c2cnc3cc4ccccc4cc3n2)cc1` and `Cc1cc2ncc(-c3ccccc3)nc2cc1C` cannot be ordered by IC50: over 100 µM for the first, over 100 µM for the second.

`Cc1nc2cc3nc(-c4cccs4)cnc3cc2n1C` and `Cc1nc2cc3ncc(-c4cccs4)nc3cc2n1C` cannot be ordered by IC50: over 30 µM for the first, over 30 µM for the second.

`Cc1cc2ncc(-c3cc[cH-]c3)nc2cc1C.[Fe+2].c1cc[cH-]c1` and `Cc1nc2cc3nc(-c4cc[cH-]c4)cnc3cc2n1C.[Fe+2].c1cc[cH-]c1` cannot be ordered by IC50: over 30 µM for the first, over 30 µM for the second.

`Cc1cc2ncc(-c3cccs3)nc2cc1C` and `COc1cc2ncc(-c3ccccc3)nc2cc1OC` cannot be ordered by IC50: over 30 µM for the first, over 100 µM for the second.
